Literature values in patent US6251620A, “Three dimensional structure of a ZAP tyrosine protein kinase fragment and modeling methods” (priority 1997, dated 2001).
Non-standard residues stand in square brackets, D forms with d. pY = N[C@@H](Cc1ccc(OP(=O)(O)O)cc1)C(=O)O; Nle = CCCC[C@H](N)C(=O)O

Columns and labels:
BDF1 mice = BDF1 mice given DBA/2 spleen:lymph node cells; usable as positive controls
MRL/Ipr-mice = details: SLE
ZAP-NC = details: in vitro binding of ZAP-NC with synthetic phosphopeptides (ref. 25)

Compound	activity in CGVHD model (BDF1 mice)	binding hierarchy (ZAP-NC)	other results
C=CC[C@@H]1/C=C(\C)C[C@H](C)C[C@H](OC)[C@H]2O[C@@](O)(C(=O)C(=O)N3CCCC[C@H]3C(=O)O[C@H](/C(C)=C/[C@@H]3CC[C@@H](O)[C@H](OC)C3)[C@H](C)[C@@H](O)CC1=O)[C@H](C)C[C@@H]2OC [FK506]	active in this model		side effects (kidney and central nervous system): serious side effects in the kidney and central nervous system; kidney toxicity (patients receiving FK506, in some cases kidney transplant required after the liver transplant): severe kidney toxicity has been observed
O=P1(N(CCCl)CCCl)NCCCO1 (centres unmarked) [cyclophosphamide]	active in this model		effect on course of disease (MRL/Ipr-mice): can prevent and reverse the course of disease
Cc1oncc1C(=O)Nc1ccc(C(F)(F)F)cc1 [leflunomide]	active in this model		effect on course of disease (MRL/Ipr-mice): can prevent and reverse the course of disease
C[C@]12C=CC(=O)C=C1CC[C@@H]1[C@@H]2[C@@H](O)C[C@@]2(C)[C@H]1CC[C@]2(O)C(=O)CO [prednisolone]	active in this model		
Ac.Asn.Gln.Leu.pTyr.Asn.Glu.Leu.Asn.Leu.Gly.Arg.Arg.Glu.Glu.pTyr.Asp.Val.Leu.Asp.NH2 [Ligand 5]		.zeta.1 =.zeta.2 >ε=.zeta.3	
Ac.Asp.Gly.Leu.pTyr.Gln.Gly.Leu.Ser.Thr.Ala.Thr.Lys.Asp.Thr.pTyr.Asp.Ala.Leu.His.NH2 (Ac-DGL[pY]QGLSTATKDT[pY]DALH-NH2; SMILES CC(=O)N[C@@H](CC(=O)O)C(=O)NCC(=O)N[C@@H](CC(C)C)C(=O)N[C@@H](Cc1ccc(OP(=O)(O)O)cc1)C(=O)N[C@@H](CCC(N)=O)C(=O)NCC(=O)N[C@@H](CC(C)C)C(=O)N[C@@H](CO)C(=O)N[C@H](C(=O)N[C@@H](C)C(=O)N[C@H](C(=O)N[C@@H](CCCCN)C(=O)N[C@@H](CC(=O)O)C(=O)N[C@H](C(=O)N[C@@H](Cc1ccc(OP(=O)(O)O)cc1)C(=O)N[C@@H](CC(=O)O)C(=O)N[C@@H](C)C(=O)N[C@@H](CC(C)C)C(=O)N[C@@H](Cc1c[nH]cn1)C(N)=O)[C@@H](C)O)[C@@H](C)O)[C@@H](C)O) [Ligand 7]		.zeta.1 =.zeta.2 >ε=.zeta.3	
Ac.Gly.Leu.pTyr.Asn.Glu.Leu.Gln.Lys.Asp.Lys.Nle.Ala.Glu.Ala.pTyr.Ser.Glu.Ile.Gly.NH2 (Ac-GL[pY]NELQKDK[Nle]AEA[pY]SEIG-NH2; SMILES CCCC[C@H](NC(=O)[C@H](CCCCN)NC(=O)[C@H](CC(=O)O)NC(=O)[C@H](CCCCN)NC(=O)[C@H](CCC(N)=O)NC(=O)[C@H](CC(C)C)NC(=O)[C@H](CCC(=O)O)NC(=O)[C@H](CC(N)=O)NC(=O)[C@H](Cc1ccc(OP(=O)(O)O)cc1)NC(=O)[C@H](CC(C)C)NC(=O)CNC(C)=O)C(=O)N[C@@H](C)C(=O)N[C@@H](CCC(=O)O)C(=O)N[C@@H](C)C(=O)N[C@@H](Cc1ccc(OP(=O)(O)O)cc1)C(=O)N[C@@H](CO)C(=O)N[C@@H](CCC(=O)O)C(=O)N[C@H](C(=O)NCC(N)=O)[C@@H](C)CC) [Ligand 6]		.zeta.1 =.zeta.2 >ε=.zeta.3	
